Reference: ChEMBL document CHEMBL1145212, “Fluorinated diaryl sulfides as serotonin transporter ligands: synthesis, structure-activity relationship study, and in vivo evaluation of fluorine-18-labeled compounds as PET imaging agents” (J Med Chem, 2005)

Target: Sodium-dependent serotonin transporter (Homo sapiens, UniProt P31645)
Experiment: In vitro displacement of [3H]paroxetine from human serotonin transporter expressed in HEK293 cells
Type: cell-based

Sodium-dependent serotonin transporter, sequence (P31645 whole entry): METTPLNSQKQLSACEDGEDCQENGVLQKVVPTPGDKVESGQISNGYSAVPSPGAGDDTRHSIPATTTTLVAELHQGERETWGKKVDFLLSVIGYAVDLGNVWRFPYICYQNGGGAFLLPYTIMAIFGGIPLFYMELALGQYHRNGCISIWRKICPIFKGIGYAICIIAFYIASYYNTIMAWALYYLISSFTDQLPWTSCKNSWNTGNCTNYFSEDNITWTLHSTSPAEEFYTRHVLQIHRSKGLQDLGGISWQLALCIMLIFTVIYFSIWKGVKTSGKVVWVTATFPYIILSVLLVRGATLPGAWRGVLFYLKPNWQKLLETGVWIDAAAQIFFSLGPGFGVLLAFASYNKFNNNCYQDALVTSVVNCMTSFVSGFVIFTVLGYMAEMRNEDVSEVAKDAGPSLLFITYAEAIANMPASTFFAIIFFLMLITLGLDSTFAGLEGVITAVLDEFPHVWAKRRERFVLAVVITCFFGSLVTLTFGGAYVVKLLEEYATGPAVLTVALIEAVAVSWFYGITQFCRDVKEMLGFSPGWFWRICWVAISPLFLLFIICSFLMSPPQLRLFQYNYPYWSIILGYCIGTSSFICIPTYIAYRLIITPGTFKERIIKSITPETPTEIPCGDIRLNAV

- Ki: 1.12 nM
SMILES: CN(C)Cc1ccccc1Sc1ccc(C#N)cc1N [DASB]
